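Growth conditions: 96-well plates. Treatment: test compound, 48 hours, 5 concentrations. Analysis: linear interpolation between bracketing concentrations; unreached endpoints set to highest concentration. GI50: concentration for 50% inhibition of growth. TGI: total growth inhibition.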

What all share (assay): NCI anticancer screen, dose series, 48 h
Assay [1] relates to OVCAR-3 ovarian.
Assay [2] concerns HOP-92 NSCLC.
The subject of assay [3] is RXF 393 renal.
For assay [4], the system named is NCI-H522 lung.
Assay [5] has as its system HOP-62 NSCLC.
Assay [6] has as its system SF-539 CNS.
Assay [7] concerns U251 CNS.
The test system of assay [8] is HCT-15 colon.
Assay [9] relates to SW-620 colon.
For assay [10], the system named is TK-10 renal.

For `COc1cc(C(=O)/C=C/c2c(-c3ccc(F)cc3)nc3sc(C)cn23)cc(OC)c1OC`, the GI50 in assay [1] was 3.66 µM; in [2], 155 nM; in assay [3], 5.75 µM; in assay [4], 2960 nM; in assay [5], 85.1 µM; in assay [6], 6.23 µM. Further, the GI50 was 4.07 µM in assay [7], 3.75 µM in assay [8], 5340 nM in assay [9] and 28 µM in assay [10]. Also, the TGI in assay [1] is greater than 100 µM; in [2], 6.32 µM; in [3], greater than 100 µM; in [4] it was greater than 100 µM; in assay [5] it was greater than 100 µM; in [6], greater than 100 µM. Also, the TGI in assay [7], in assay [8], in assay [9] and in assay [10] was greater than 100 µM in each case.
In the case of `N#Cc1cccc(C(=O)c2cnn(-c3ccc(F)cc3)c2N)c1`, the GI50 in [1] was greater than 25 µM; in assay [2], greater than 25000 nM; in assay [3], greater than 23.4 µM; in assay [4], greater than 25000 nM; in [5], greater than 17.2 µM; in [6], greater than 25 µM. For the same molecule, the GI50 in [7] is 18.1 µM; in assay [8] it was greater than 25 µM; in assay [9], greater than 25000 nM; in assay [10], greater than 25 µM. Moreover, the TGI in assay [1], in assay [2], in assay [3], in assay [4], in assay [5] and in assay [6] was greater than 25 µM in each case. Further, the TGI in [7], in assay [8], in [9] and in assay [10] was greater than 25 µM in each case.
Take `CC(C)COC(=O)N1N=NC2C3OC(CC3=O)C21` (centres undefined): the TGI in [1], in assay [2], in assay [3], in assay [4], in [5] and in [6] was greater than 100 µM each time. For the same molecule, the TGI in [7], in [8], in [9] and in [10] was greater than 100 µM each time.
For the molecule `O=C(Nc1ccc(Cl)cc1)c1cc2c(cc1O)[nH]c1ccccc12`, the GI50 in assay [1] is 3.72 µM; in [2], 3180 nM; in [3], 5.14 µM; in assay [4], 2880 nM; in assay [5] it was 2.8 µM; in [6], 2.34 µM. Moreover, the GI50 in [7] is 3.18 µM; in [8] it was 3.24 µM; in assay [9], 3400 nM; in assay [10] it was 2.54 µM. Also, the TGI in assay [1] came out at 12.2 µM; in assay [2], 12.5 µM; in [3], 20.6 µM; in assay [4] it was 10.6 µM; in assay [5], 6.6 µM; in assay [6] it was 6.04 µM. Moreover, the TGI in assay [7] worked out at 11.3 µM; in [8], 13.1 µM; in assay [9], 13.4 µM; in assay [10], 6.56 µM.
As to `Nc1c(C(=O)c2cccc(-c3ccc[n+]([O-])c3)c2)cnn1-c1ccc(F)cc1F`, the GI50 in assay [1] was greater than 25 µM; in assay [2] it was greater than 25000 nM; in assay [3], greater than 25 µM; in [4], greater than 25000 nM; in assay [5], greater than 25 µM; in [6], greater than 25 µM. Further, the GI50 in [7] is greater than 25 µM; in [8], greater than 25 µM; in assay [9] it was greater than 25000 nM; in assay [10], greater than 25 µM. Also, the TGI in assay [1], in assay [2], in assay [3], in assay [4], in [5] and in [6] was greater than 25 µM each time. Moreover, the TGI in [7], in [8], in [9] and in assay [10] was greater than 25 µM throughout.
In the case of `O=S1(=O)N(Cc2ccccc2)[C@@H](Cc2ccccc2)C2O[C@H]2[C@H](Cc2ccccc2)N1Cc1ccccc1` (some centres undefined), the GI50 in [1] is 4.03 µM; in assay [2], greater than 7500 nM; in assay [3] it was greater than 7.5 µM; in [4] it was 1830 nM; in assay [5], greater than 7.5 µM; in assay [6], greater than 7.5 µM. Also, the GI50 was 1.84 µM in assay [7], 3.92 µM in assay [8], greater than 7500 nM in assay [9] and 3.9 µM in assay [10]. The TGI in assay [1], in assay [2], in assay [3], in [4], in [5] and in assay [6] was greater than 7.5 µM throughout. For the same molecule, the TGI in assay [7], in assay [8], in assay [9] and in assay [10] was greater than 7.5 µM throughout.
For the molecule `CCON=C1C(C)(C)C(C)(C)C(C)(C)C1(C)C`, the TGI in assay [1], in assay [2], in [3], in [4], in [5] and in assay [6] was greater than 100 µM throughout. Also, the TGI in assay [7], in [8], in [9] and in assay [10] was greater than 100 µM throughout.
Consider `CCCCCCCCCCCCCCCC(=O)OCC1OC(n2cnc3c(=S)nc(N)[nH]c32)C(OC(=O)CCCCCCCCCCCCCCC)C1OC(=O)CCCCCCCCCCCCCCC` (centres undefined), for which the GI50 in assay [1] was 6.16 µM; in assay [2] it was 3850 nM; in [3], 8.09 µM; in assay [4] it was 4820 nM; in [5], 1.78 µM; in assay [6], 6.95 µM. Further, the GI50 in assay [7] is 24.1 µM; in assay [8], 6.17 µM; in assay [9], 11100 nM; in assay [10] it was 1.99 µM. The TGI is greater than 47.3 µM in [1]; greater than 50 µM in assay [2]; greater than 50 µM in [3]; greater than 47.4 µM in assay [4]; greater than 35 µM in [5]; greater than 50 µM in assay [6]. In addition, the TGI in assay [7], in assay [8], in assay [9] and in assay [10] was greater than 50 µM in each case.
For `C[C@@H]1COCCN1c1nc(-c2cnc(N)cc2C(F)F)nc(N2[C@H](C)COC[C@@H]2C)n1`, the GI50 in assay [1] was 0.293 µM; in [2], 90 nM; in assay [3], 0.0668 µM; in assay [4], 267 nM; in assay [5], 0.332 µM; in [6], 0.264 µM. The GI50 in assay [7] is 0.355 µM; in assay [8] it was 0.236 µM; in [9], 419 nM; in [10], 0.209 µM. In addition, the TGI in [1] came out at 12.7 µM; in assay [2], 1.14 µM; in assay [3] it was 0.485 µM; in assay [4] it was 12.8 µM; in [5], 13.2 µM; in [6] it was 6.66 µM. The TGI was 13.7 µM in assay [7], 12.4 µM in assay [8], 13 µM in assay [9] and 4.51 µM in assay [10].
In the case of `CCCCCCOc1ccc(/C=N/NC(N)=S)cc1`, the GI50 in assay [1] is 1.97 µM; in assay [2], 2390 nM; in assay [3], 1.44 µM; in [4], 421 nM; in [5] it was 60.1 µM; in [6], 2.38 µM. For the same molecule, the GI50 was 7.96 µM in assay [7], 2.69 µM in assay [8], 1990 nM in assay [9] and 5.54 µM in assay [10]. Also, the TGI in assay [1] is 6.6 µM; in [2], 27.4 µM; in assay [3], 3.61 µM; in assay [4] it was 1.76 µM; in assay [5] it was greater than 100 µM; in [6] it was 6.06 µM. Moreover, the TGI in assay [7] is greater than 100 µM; in assay [8], greater than 100 µM; in assay [9], 20.5 µM; in assay [10], 30.1 µM.
Regarding `O=c1[nH]cnc2c1nnn2C1OC(CO)C(O)C1O` (centres undefined), the GI50 in assay [1] was 0.816 µM; in assay [2], 1660 nM; in [3], 1.62 µM; in assay [4] it was 1480 nM; in [5], 2.67 µM; in assay [6], 4.06 µM. Also, the GI50 in assay [7] was 20.4 µM; in assay [8], 1.21 µM; in assay [9], 1690 nM; in assay [10], 1.5 µM. For the same molecule, the TGI was 4.98 µM in assay [1]; greater than 100 µM in [2]; 32.2 µM in assay [3]; 14 µM in assay [4]; greater than 100 µM in assay [5]; 63.8 µM in [6]. Also, the TGI in assay [7] is greater than 100 µM; in [8], greater than 100 µM; in assay [9] it was greater than 100 µM; in assay [10], greater than 30.2 µM.
Regarding `C=C1C(=O)O[C@H]2[C@H]1CC/C(CNC(=O)/C=C/c1cccc(OC)c1)=C\CC[C@@]1(C)O[C@@H]21`, the GI50 in assay [1] was 1.1 µM; in assay [2], 1030 nM; in assay [3], 1.05 µM; in assay [4], 435 nM; in assay [5], 3.17 µM; in assay [6], 1.27 µM. The GI50 in [7] was 1.58 µM; in assay [8], 1.05 µM; in assay [9] it was 958 nM; in assay [10], 1.15 µM. In addition, the TGI in assay [1] was 2.45 µM; in assay [2] it was 3.38 µM; in assay [3] it was 2.33 µM; in assay [4] it was 1.77 µM; in assay [5] it was 14.8 µM; in [6], 2.98 µM. In addition, the TGI in assay [7] was determined as 3.11 µM; in [8] it was 2.54 µM; in [9], 2.33 µM; in assay [10], 2.5 µM.
Turning to `CC(=N\O)/C(C)=N/O.CC(=N\O)/C(C)=N/O.CC(=N\O)/C(C)=N/O.CC(=N\O)/C(C)=N/O.[Cu].[Cu]`, the GI50 in assay [1] was 22.6 µM; in assay [2], 18400 nM; in assay [3], 21.5 µM; in assay [4] it was 18200 nM; in [5], 24.7 µM; in assay [6], 20.8 µM. The GI50 in assay [7] is 17.6 µM; in [8], 20.6 µM; in assay [9], 21500 nM; in assay [10], 19.1 µM. Moreover, the TGI in [1] was 43.7 µM; in assay [2], 32.8 µM; in assay [3], 39.3 µM; in assay [4], 34.1 µM; in assay [5] it was 64.8 µM; in assay [6] it was 37.2 µM. Also, the TGI was 31.3 µM in assay [7], 42.1 µM in [8], 45.9 µM in [9] and 33.2 µM in assay [10].
Turning to `CN(C)c1ccc(C(=O)c2ccc(N(C)C)c(N)c2)cc1N`, the GI50 in [1] was 1.86 µM; in assay [2], 1460 nM; in assay [3], 3.76 µM; in [4], 346 nM; in [5], 5.91 µM; in assay [6], 3.92 µM. The GI50 in assay [7] was 2.79 µM; in assay [8], 2.35 µM; in assay [9], 1140 nM; in [10], 14.5 µM. The TGI is 8 µM in [1]; greater than 70.4 µM in assay [2]; 18.4 µM in assay [3]; 4.61 µM in [4]; greater than 100 µM in [5]; 26.5 µM in assay [6]. Moreover, the TGI was greater than 100 µM in [7], greater than 100 µM in [8], greater than 100 µM in assay [9] and 98.6 µM in assay [10].
With `CN(C)C(=S)NN=C(c1ccccn1)c1ccccn1`, the GI50 in [1] was less than 0.01 µM; in assay [3], 0.138 µM; in assay [4] it was 124 nM; in [5], less than 0.01 µM; in [6], 0.0425 µM; in assay [7], less than 0.01 µM. For the same molecule, the GI50 in [8] was less than 0.012 µM; in assay [9], less than 11.5 nM; in assay [10], 0.183 µM. The TGI was 30.5 µM in assay [1]; greater than 86.6 µM in assay [2]; 13.8 µM in assay [3]; 19.1 µM in assay [4]; 0.0273 µM in assay [5]; 4.64 µM in [6]. The TGI in assay [7] is greater than 59.4 µM; in assay [8] it was 25.5 µM; in assay [9] it was greater than 40.2 µM; in assay [10], 16.5 µM.

The record behind these values is PubChem BioAssay (NCI).
